According to patent US20080249174A1, “Animal Model for Studying Atherosclerotic Lesions” (THE RESEARCH FOUNDATION OF STATE UNIVERSITY OF NEW YORK, priority 2005, published 2008):
Marks after values point to notes of the source that are not given here.

How the values were obtained:
[1] = target: mouse Sptlc1 (serine palmitoyl-CoA transferase subunit 1) (mouse) (UniProt O35704); experiment: cell-based or functional assay
apoE KO mice [2] = experiment: Plasma lipid measurement after myriocin administration; type: in vivo, mouse; conditions: for Plasma PC: PC = total phospholipid minus SM; for Plasma SM: n=7; for PC/SM ratio increased / plasma PC levels increased / plasma SM levels decreased: vs control; for PC/SM ratio increased / plasma PC levels increased: p<0.0001
Method: (§1) Eight-week-old apoE KO micewere purchased from The Jackson Laboratory (Bar Harbor, Me.). Myriocin (0.3 mg/kg) (Biomol Research Laboratories Inc.) or phosphate buffered saline was injected intraperitoneally every other day for 8 weeks. The animals were on Purina Rodent Chow (catalog number 5001) or a high fat, high cholesterol diet (20% milk fat and 0.15% cholesterol; Harlan Teklad, Madison, Wis.).
(§2) Fasting plasma was collected for fast protein liquid chromatography (FPLC) separation and lipid measurement. Total cholesterol, phospholipids and triglyceride inplasma, and lipoproteins were assayed by enzymatic methods (WakoPure Chemical Industries Ltd., Osaka, Japan). Plasma sphingomyelin was measured as described previously (JBC13). PC concentration was obtained by subtracting SM from total phospholipid concentration. Apolipoprotein analysis using SDS-PAGE was also done as describedpreviously (JBC 14).

apoE KO mice [3] = experiment: FPLC lipid distribution among lipoproteins with or without myriocin; type: in vivo, mouse
Method: Aliquots of 200 μl of pooled plasma from mice (n=7) with or without myriocin treatment were analyzed by FPLC (V, VLDL; L, LDL; and H, HDL). An aliquot of each fraction was used for the determination of SM (FIG. 6A), PC (FIG. 6B), and cholesterol (FIG. 6C).
Aliquots of 200 μl of pooled plasma from mice (n=7) with or without myriocin treatment were analyzed by FPLC (V, VLDL; L, LDL; and H, HDL). An aliquot of each fraction was used for the determination of SM (FIG. 7A), PC (FIG. 7B), and cholesterol (FIG. 7C).
as §2
To investigate the lipid distribution among the lipoproteins with or without myriocin treatment, FPLC was utilized to fractionize lipoproteins and measured SM, PL, and cholesterol in each fraction.

[4] = cited from earlier work
T-lymphocyte populations = conditions: myriocin 1 mg/kg (but not 0.3 mg/kg); cited from earlier work
SPT = target: T1, SPT (Mus musculus, UniProt O35704+P97363); experiment: SPT activity in liver of myriocin-treated apoE KO mice; type: in vivo; conditions: myriocin 0.3 mg/kg intraperitoneally every other day for 8 weeks
T1 construct: myriocin treated mice had 50% less SPT activity in the liver than the controls; from tissue; host or cells: liver of apoE KO mice (The Jackson Laboratory) treated in vivo with myriocin
T1 sequence (O35704 1-473): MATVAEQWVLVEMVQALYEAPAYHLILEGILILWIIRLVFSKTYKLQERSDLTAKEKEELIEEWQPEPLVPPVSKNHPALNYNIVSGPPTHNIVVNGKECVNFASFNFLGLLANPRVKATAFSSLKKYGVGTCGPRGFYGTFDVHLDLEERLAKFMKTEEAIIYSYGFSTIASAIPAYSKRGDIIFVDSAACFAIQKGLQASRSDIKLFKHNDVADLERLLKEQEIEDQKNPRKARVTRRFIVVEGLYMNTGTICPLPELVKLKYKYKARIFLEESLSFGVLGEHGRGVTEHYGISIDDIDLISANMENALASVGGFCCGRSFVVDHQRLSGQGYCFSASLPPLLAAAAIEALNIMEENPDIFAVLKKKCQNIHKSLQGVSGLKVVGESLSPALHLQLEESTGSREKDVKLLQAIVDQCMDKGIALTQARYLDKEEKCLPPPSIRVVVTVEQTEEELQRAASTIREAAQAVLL
T1 sequence (P97363 1-560): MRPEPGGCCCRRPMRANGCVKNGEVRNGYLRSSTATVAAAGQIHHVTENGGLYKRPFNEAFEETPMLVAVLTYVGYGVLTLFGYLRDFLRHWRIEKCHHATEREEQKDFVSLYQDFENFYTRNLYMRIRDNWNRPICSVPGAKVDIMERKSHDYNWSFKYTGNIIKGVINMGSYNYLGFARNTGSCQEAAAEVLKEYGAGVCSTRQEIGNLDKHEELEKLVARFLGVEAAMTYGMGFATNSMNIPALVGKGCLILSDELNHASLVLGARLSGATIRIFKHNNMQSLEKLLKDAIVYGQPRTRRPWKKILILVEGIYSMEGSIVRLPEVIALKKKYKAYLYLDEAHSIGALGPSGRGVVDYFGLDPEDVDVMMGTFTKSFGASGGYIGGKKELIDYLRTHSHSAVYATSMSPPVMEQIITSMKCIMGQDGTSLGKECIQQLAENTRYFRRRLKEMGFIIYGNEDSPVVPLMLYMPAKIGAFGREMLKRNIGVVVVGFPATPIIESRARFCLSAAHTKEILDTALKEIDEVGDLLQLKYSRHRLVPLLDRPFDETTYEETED
T1 sequence (Q8R207 1-71 partner): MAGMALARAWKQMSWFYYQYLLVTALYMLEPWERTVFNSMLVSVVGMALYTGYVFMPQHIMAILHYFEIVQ
Method: Each mRNA level was expressed as a ratio to β-Actin mRNA. Liver tissues from Sptlc1 and Sptlc2-deficient, as well as wild type, mice were homogenized, and SPT activity was measured with ^3H-serine and palmitoyl-coenzyme A for substrates, as previously described (15).
as §1
In the present invention, two groups of 8-week-old apoE KO mice were utilized. Group 1 (n=7) and group 2 (n=7) animals were injected with 100 μl of myriocin (0.3 mg/kg) or phosphate-buffered saline, respectively, every other day for 8 weeks. As expected, myriocin treated mice had 50% less SPT activity in the liver than the controls.

apoE KO mice [5] = conditions: oral myriocin, high cholesterol diet; cited from earlier work
apoE KO mice [6] = experiment: Plasma sphingolipid analysis by mass spectrometry after myriocin administration; type: in vivo, mouse; conditions: for Plasma C14Cer / Plasma C16Cer / Plasma C18:1Cer / Plasma C18Cer / Plasma C20Cer / Plasma C24:1Cer / Plasma C24Cer / Plasma DHSph / Plasma DHSph-1P / Plasma S1P / Plasma Sph: myriocin 0.3 mg/kg i.p. 8 weeks, n=7
Method: as §1
Plasma sphingosinebases, sphingoid base-1-phosphates, and ceramide species were performed on a Thermo Finnigan TSQ 7000 triple quadrupole mass spectrometer operating in a multiple reaction monitoring, positive ionization mode at the Department of Biochemistry and Molecular Biology, Medical University of South Carolina, on a fee-for-service basis. Briefly, 250 μl of mouse plasma was fortified with the internal standards (IC17 base D-erythro-sphingosine (17C-Sph), C17 sphingosine-1-phosphate (17C—S1P), N-palmitoyl-D-erythro-C13 sphingosine (13C-Cer), and heptadecanoyl-D-erythro-sphingosine (C17-Cer)) and extracted with ethyl acetate/iso-propanol/water (60:30:10) (v/v) solvent system. After evaporation and reconstitution in 100 μl of methanol, samples were injected onto the Surveyor/TSQ 7000 liquid chromatography/mass spectrometry system, and gradient was eluted from a BDSHypersil C8, 150×3.2-mm, 3-μm particle size column with a 1 mM methanolic ammonium formate, 2 mM aqueous ammonium formate mobile phase system. Peaks corresponding to the target analytes and internal standards were collected and processed using the Xcalibur software system. Quantitative analysis was based on the calibration curves generated by spiking an artificial matrix with the known amounts of the target analyte synthetic standards and an equal amount of the internal standards. The target analyte/internal standard peak area ratios were plotted against analyte concentration. The target analyte/internal standard peak area ratios from the samples were similarly normalized to their respective internal standards and compared with the calibration curves using a linear regression model.

apoE KO mice [7] = experiment: Apolipoprotein analysis using SDS-PAGE; type: in vivo, mouse
Method: as §2

apoE KO mice [8] = experiment: Atherosclerotic lesions: aorta root assay and en face assay; type: in vivo, mouse; conditions: 2 months of myriocin administration, p<0.01; for reduction in mean whole aortic lesion areas compared with controls: en face; for reduction in mean proximal aortic lesion areas compared with controls: root assay
From the text: This set of pictures is representative of seven sets. FIGS. 8B and 8C depict quantification of atherosclerotic lesions in the proximal aorta by root assay in mice fed a chow diet (FIG. 8B) or a high fat, high cholesterol diet (FIG. 8C). The procedure for root assay was described previously (JBC 15). FIGS. 8D and 8E depict quantification of atherosclerotic lesions in whole aorta by en face analysis in mice fed a chow diet (FIG. 8D) or a high fat, high cholesterol diet (FIG. 8E). The procedure for en face analysis was described previously (JBC 16). Values are mean ±S.D. *, p<0.001; n=7.
At the end of the myriocin treatment period, the mice were sacrificed, and the hearts and proximal aortas as well as the whole aortas were removed, dissected, and photographed. An aorta root assay and an en face assay were performed as described previously (JBC 15, 16).

[9] = chow diet, myriocin 0.3 mg/kg i.p. 8 weeks
[10] = high fat diet, myriocin 0.3 mg/kg i.p. 8 weeks
[11] = high fat, high cholesterol (Western type) diet 8 weeks
[12] = high fat, high cholesterol diet
[13] = chow diet, pooled plasma n=7, FIG. 6
[14] = high fat diet, pooled plasma n=7, FIG. 7

mouse Sptlc2 (serine palmitoyl-CoA transferase subunit 2) (from UniProt P97363 1-560) (enzyme)
decrease in Sptlc2 protein mass in Sptlc1+/- mouse liver against WT (Western blot of liver homogenate) [1]: 53%

CCCCCCC(=O)CCCCCC/C=C/C[C@@H](O)[C@H](O)[C@@](N)(CO)C(=O)O [Myriocin, myriocin]
total cholesterol levels, change after myriocin (apoE KO mice [2]; chow diet): not significantly changed
triglyceride levels, change after myriocin (apoE KO mice [2]; chow diet): not significantly changed
PC/SM (apoE KO mice [2]; [9]): 12.1 ± 0.2a
Plasma Chol (apoE KO mice [2]; [9]): 660 ± 105 mg/dL
Plasma TG (apoE KO mice [2]; [9]): 75 ± 19 mg/dL
Plasma PC (apoE KO mice [2]; [9]): 399 ± 59^a mg/dl
Plasma SM (apoE KO mice [2]; chow diet, myriocin 0.3 mg/kg i.p. every other day 8 weeks, mean ± S.D.): 33 ± 3^a mg/dl
PC/SM ratio increased (apoE KO mice [2]; chow diet): 317%
plasma PC levels increased (apoE KO mice [2]; chow diet): 91%
plasma SM levels decreased (apoE KO mice [2]; chow diet, p<0.001): 54%
PC/SM (apoE KO mice [2]; [10]): 16.9
Plasma Chol (apoE KO mice [2]; [10]): 1807 ± 342 mg/dL
Plasma TG (apoE KO mice [2]; [10]): 107 ± 27 mg/dL
Plasma SM (apoE KO mice [2]; [10]): 47 ± 14^a mg/dl
Plasma PC (apoE KO mice [2]; [10]): 795 ± 97^a mg/dl
plasma SM levels decreased (apoE KO mice [2]; [11]): 59%
PC/SM ratio increased (apoE KO mice [2]; [11]): 380%
plasma PC levels increased (apoE KO mice [2]; [11]): 100%
total cholesterol levels, change after myriocin (apoE KO mice [2]; [12]): not significantly changed
triglyceride levels, change after myriocin (apoE KO mice [2]; [12]): not significantly changed
PC in FPLC lipoprotein fractions (apoE KO mice [3]; [13]): increased
SM in FPLC lipoprotein fractions (apoE KO mice [3]; [13]): significantly decreased
cholesterol in FPLC lipoprotein fractions (apoE KO mice [3]; [13]): no significant effect
PC in FPLC lipoprotein fractions (apoE KO mice [3]; [14]): increased
SM in FPLC lipoprotein fractions (apoE KO mice [3]; [14]): dramatically decreased
cholesterol in FPLC lipoprotein fractions (apoE KO mice [3]; [14]): no effect
toxicity of oral administration [4]: serious gastrointestinal toxicity
effect on T-lymphocyte populations in mice (T-lymphocyte populations): reduces T-lymphocyte populations
less SPT activity in the liver than the controls (SPT): 50%
atherosclerotic lesions (apoE KO mice [5]): dramatic reduction
plasma SM levels (apoE KO mice [5]): significant reduction
plasma cholesterol levels (apoE KO mice [5]): significant reduction
plasma Cer, change after myriocin treatment (apoE KO mice [6]; chow diet): significantly decreased
plasma S1P, change after myriocin treatment (apoE KO mice [6]; chow diet): significantly decreased
plasma Sph, change after myriocin treatment (apoE KO mice [6]; chow diet): significantly decreased
Plasma C14Cer (apoE KO mice [6]; chow diet): 12 ± 2^a nM
Plasma C16Cer (apoE KO mice [6]; chow diet): 11 ± 3^a nM
Plasma C18:1Cer (apoE KO mice [6]; chow diet): 2 ± 1^a nM
Plasma C18Cer (apoE KO mice [6]; chow diet): 51 ± 8^a nM
Plasma C20Cer (apoE KO mice [6]; chow diet): 35 ± 9^a nM
Plasma C24:1Cer (apoE KO mice [6]; chow diet): 854 ± 144^a nM
Plasma C24Cer (apoE KO mice [6]; chow diet): 1321 ± 22^a nM
Plasma DHSph (apoE KO mice [6]; chow diet): 30 ± 3 nM
Plasma DHSph-1P (apoE KO mice [6]; chow diet): 9 ± 5^a nM
Plasma S1P (apoE KO mice [6]; chow diet): 58 ± 9^a nM
Plasma Sph (apoE KO mice [6]; chow diet): 127 ± 8^a nM
Plasma S1P (apoE KO mice [6]; chow diet, listed as myriocin): < 100 nM
Plasma C14Cer (apoE KO mice [6]; high fat diet): 20 ± 2 nM
Plasma C16Cer (apoE KO mice [6]; high fat diet): 12 ± 6^a nM
Plasma C18:1Cer (apoE KO mice [6]; high fat diet): 9 ± 1^a nM
Plasma C18Cer (apoE KO mice [6]; high fat diet): 36 ± 14^a nM
Plasma C20Cer (apoE KO mice [6]; high fat diet): 45 ± 11^a nM
Plasma C24:1Cer (apoE KO mice [6]; high fat diet): 1009 ± 134^a nM
Plasma C24Cer (apoE KO mice [6]; high fat diet): 1708 ± 426^a nM
Plasma DHSph (apoE KO mice [6]; high fat diet): 20 ± 1^a nM
Plasma DHSph-1P (apoE KO mice [6]; high fat diet): 10 ± 2^a nM
Plasma S1P (apoE KO mice [6]; high fat diet): 42 ± 19^a nM
Plasma Sph (apoE KO mice [6]; high fat diet): 114 ± 19^a nM
plasma Cer, change after myriocin treatment (apoE KO mice [6]; [12]): dramatically decreased
plasma S1P, change after myriocin treatment (apoE KO mice [6]; [12]): dramatically decreased
plasma Sph, change after myriocin treatment (apoE KO mice [6]; [12]): dramatically decreased
levels of apolipoproteins, including apoB100, apoB48, and apoA-I (apoE KO mice [7]; chow diet): no significant changes
levels of apolipoproteins, including, apoB48, and apoA-I (apoE KO mice [7]; [12]): no significant changes
reduction in mean whole aortic lesion areas compared with controls (apoE KO mice [8]; Western type diet): 37%
reduction in mean proximal aortic lesion areas compared with controls (apoE KO mice [8]; Western type diet): 39%
reduction in mean whole aortic lesion areas compared with controls (apoE KO mice [8]; chow diet): 36%
reduction in mean proximal aortic lesion areas compared with controls (apoE KO mice [8]; chow diet): 42%
